Assay results: patent publication US20110045459A1, “Molecular determinants of EGFR kinase inhibitor response in glioblastoma” (priority 2005, published 2011)
“Also recorded” adds a separate entry of the source.

Test system: U87MG glioblastoma cells
Experiment: Relative sensitivity to erlotinib of U87MG lines expressing PTEN, EGFR, EGFRvIII (crystal violet)
Type: cell-based
Conditions: erlotinib 0-10 μM, 10-14 days, U87-PTEN
Protocol: FIG. 3. […] 1000 cells/well of each cell line was seeded into 96-well plates in 8 replicates. […] Experiments were repeated 3 times in 8 replicates for each condition.
Following retroviral transduction we selected the following stable cell lines: U87-PTEN, U87-EGFR, U87-PTEN-EGFR, U87-EGFRvIII and U87-PTEN-EGFRvIII.
Functional analysis of effect of EGFR, EGFRvIII and PTEN coexpression: Human EGFR and EGFRvIII cDNAs were retrovirally introduced into U87MG and U87MG-PTEN over-expressing cells and selected for antibiotic resistance. Multiple stable clones were analyzed for the expression of PTEN, EGFR or EGFRvIII by immunoblot. […] The background reading of the wells containing medium alone was subtracted from experimental wells.

C#Cc1cccc(Nc2ncnc3cc(OCCOC)c(OCCOC)cc23)c1 [Erlotinib]
sensitization of glioblastoma cells to erlotinib: EGFRvIII and PTEN co-expression sensitizes glioblastoma cells to erlotinib; also recorded: EGFRvIII sensitized glioblastoma cells to erlotinib, but only when PTEN was co-expressed
